Results published in US10385399B2, “Method for determining clinically relevant hypoxia in cancer” (AARHUS UNIVERSITET, priority 2011, dated 2019).

Assays:
[1] = tested on: head and neck cancer patients; assay: DAHANCA 5 trial: Nimorazole or placebo in conjunction with conventional radiotherapy, loco-regional tumour control; assay type: in vivo, human
From the text: In order to test the predictive potential for hypoxic modification of radiotherapy obtained by nitroimidazoles, the 15-gene classifier was applied on all 323 HNSCC biopsies from patients enrolled in the DAHANCA 5 trial. […] Overall, the hypoxia classifier categorized 114 tumours (35%) as “more” hypoxic and 209 tumours (65%) as “less” hypoxic. […] No significant difference in loco-regional tumour control could be detected between the two groups if treatment intervention was ignored (p=0.07), (FIG. 3b). […] This hypothesis could not be supported by the 15-gene hypoxia classifier that identified similar relative distribution of “more” hypoxic tumours among the HPV/p16-positive tumours as among the HPV/p16-negative tumours (Table 5). Thus, it appears that the cause for different prognosis must be searched elsewhere and might be related to a reduced number of radio-resistant cancer stem cells in the HPV/p16-positive tumors.
Hypoxia responsive and pH independent genes were identified by microarray analysis (Affymetrix Human Genome U133 Plus 2.0 Array) of relevant cell lines of squamous cell carcinoma, which were cultured in vitro where microenvironment conditions had been manipulated (0.1% vs. 5% pO2 and 7.4 vs. 6.3 pH). In vivo validation was performed by converting the cell lines into a xenograft model and comparing the gene expression in hypoxic and non-hypoxic tumour areas (Wilcoxon signed rank analysis) guided by a well established hypoxic tracer and [^18F] FAZA. A hypoxia gene expression classifier was build by separating 58 previously hypoxia evaluated formalin fixated paraffin embedded (FFPE) head and neck tumour biopsies into “more” and “less” hypoxic tumours. […] Independent tumours were then to be classified to the group (“more” or “less” hypoxic), in which their gene expression expressed the greatest similarities. The classifier was tested in an independent set of 323 FFPE biopsies of head and neck cancer, were patients had been randomized and treated with either placebo or the hypoxic modifier Nimorazole in conjunction with conventional radiotherapy^4. We verified whether the 15-gene hypoxia classifier could identify a subset of tumours having benefit from Nimorazole in conjunction with radiotherapy, by comparing the clinical outcome and the response to hypoxic modification in the two classified groups with log-rank test, cox-regression analysis and test for interaction.
In vitro experiments were based on human squamous cell carcinoma cell lines UTSCC5, UTSCC14, UTSCC15 (oral carcinoma), FADUDD (hypopharyngeal carcinoma) and SiHa (uterine cervix carcinoma). Xenograft tumours for in vivo validation were generated with cell lines of UTSCC33, FADUDD or SiHa. The hypoxia classifier was generated from 58 previously hypoxia evaluated head and neck cancer biopsies archived as formalin fixated and paraffin embedded samples (FFPE). To test the prognostic and predictive impact of the developed classifier, we used 323 archival supraglottic larynx or pharynx tumour samples (FFPE) from the randomized, double blinded DAHANCA 5 trial.
H, N and M areas of the xenograft tumours were compared with the Wilcoxon's signed rank analysis. End point used in the evaluation of the classifier in the independent data set, was actuarial loco-regional tumour control probability at 5 years, defined as complete and persistent disappearance of the disease in the primary tumour (T site) and regional lymph nodes (N site) after radiotherapy. Failure was recorded in the event of recurrent tumour or if the tumour never completely disappeared. Follow-up was completed as part of the original study. […] Patient and tumour characteristics of the “more” and “less” hypoxic” groups divided by the hypoxia classifier were compared using the Chi Squared test for categorical variables. Loco-regional tumour control in the two groups was illustrated with a Kaplan Meier plot and compared using the log-rank test. […]

[2] = tested on: head and neck cancer patients; details: cited from earlier work

O=[N+]([O-])c1cncn1CCN1CCOCC1 [Nimorazole, 4-[2-(5-nitro-1H-imidazol-1-yl)ethyl]morpholine]
HR (95% CI) loco-regional tumour control, Nimorazole vs placebo ([1]; Cox multivariate analysis, "Less" hypoxic group by 15-gene hypoxia classifier): 0.97 (0.65-1.44)
HR (95% CI) loco-regional tumour control, Nimorazole vs placebo ([1]; Cox multivariate analysis, "More" hypoxic group by 15-gene hypoxia classifier): 0.44 (0.27-0.73)
HR (95% CI) loco-regional tumour control, Nimorazole vs placebo ([1]; Cox multivariate analysis, all patients (n = 323)): 0.70 (0.51-0.96)
HR (95% CI) loco-regional tumour control, Nimorazole vs placebo ([1]; Univariate analysis, "Less" hypoxic group by 15-gene hypoxia classifier (n = 209)): 0.85 (0.50-1.38)
HR (95% CI) loco-regional tumour control, Nimorazole vs placebo ([1]; Univariate analysis, "More" hypoxic group by 15-gene hypoxia classifier (n = 114)): 0.46 (0.29-0.75)
HR (95% CI) loco-regional tumour control, Nimorazole vs placebo ([1]; Univariate analysis, all patients (n = 323), with conventional radiotherapy): 0.72 (0.53-0.97)
outcome in terms of loco-regional tumour control after radiotherapy vs placebo ([1]; all 323 HNSCC patients, irrespective of hypoxia classification, p=0.03): significantly improved outcome
loco-regional tumour control after 5 years ([1]; group classified as "less" hypoxic, Nimorazole with radiotherapy (vs. 44%, p=0.42)): 50%
loco-regional tumour control after 5 years ([1]; group classified as "more" hypoxic, Nimorazole with radiotherapy (placebo 18%, p=0.002)): 49%
outcome compared to placebo in conjunction with radiotherapy ([2]; DAHANCA 5 trial as described in the background, head and neck cancer patients): improved outcome
effect on loco-regional tumour control of HPV/p16-positive tumors ([2]; HPV/p16-positive tumours, previously shown in the DAHANCA 5 study): without any beneficial effect
